According to PMC11602988 (The Journal of Biological Chemistry, 2024):
Positions count from the first letter of the chain named. Values joined by “and” are separate entries in the source; they are usually repeats but may differ in a detail not shown here. Identical values can stand only once. Like-named read-outs stand apart in the source and are kept apart here.

How the values were obtained:
OCT1 Phe244Ala variant = target: T1, OCT1 Phe244Ala variant (Homo sapiens, UniProt O15245, F244A); experiment: Uptake screening (transport ratio over empty vector), HEK293 cells overexpressing OCT1 Phe244Ala variant; assay type: cell-based; design: expressed in transfected cells;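 further: stably transfected HEK293 cells, intracellular substrate quantified by HPLC-tandem mass spectrometry in cell lysates, uptake in HBSS+ buffer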
T1 sequence (O15245 1-554 F244A): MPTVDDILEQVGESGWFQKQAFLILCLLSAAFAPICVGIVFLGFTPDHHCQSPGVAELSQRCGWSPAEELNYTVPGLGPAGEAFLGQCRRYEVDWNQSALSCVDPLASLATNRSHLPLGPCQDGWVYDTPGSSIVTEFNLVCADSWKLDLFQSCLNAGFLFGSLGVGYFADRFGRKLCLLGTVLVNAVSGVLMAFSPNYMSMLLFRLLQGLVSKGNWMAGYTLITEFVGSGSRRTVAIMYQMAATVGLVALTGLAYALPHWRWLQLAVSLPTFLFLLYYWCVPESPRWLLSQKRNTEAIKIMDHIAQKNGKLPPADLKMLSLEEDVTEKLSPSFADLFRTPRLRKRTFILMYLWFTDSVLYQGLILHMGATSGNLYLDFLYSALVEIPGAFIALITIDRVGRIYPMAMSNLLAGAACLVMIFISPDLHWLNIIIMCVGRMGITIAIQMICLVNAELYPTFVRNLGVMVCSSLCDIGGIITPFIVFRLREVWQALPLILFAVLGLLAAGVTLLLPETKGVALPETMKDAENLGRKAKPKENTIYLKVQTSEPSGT
Protocol: (§1) All experiments were carried out using transporter-overexpressing HEK293 cells. […] Cells were cultivated in Dulbecco’s Modified Eagle’s medium supplemented with 10% fetal calf serum, 100 U/ml penicillin, and 100 μg/ml streptomycin. Cells were passaged twice a week and kept in culture for no longer than 30 passages.
(§2) For uptake studies, 300,000 HEK293 cells were plated in each well of 24-well plates precoated with poly-D-lysine 48 prior to the experiment. On the day of the experiment, cells were washed once with prewarmed to 37 °C HBSS+ (Hank’s balanced salt solution supplemented with 10 mM Hepes, both Sigma-Aldrich). […] Uptake was stopped by adding ice-cold HBSS+ and cells were washed twice with ice-cold buffer before cell lysis was done using 80% acetonitrile containing an appropriate internal standard for eventual mass spectrometry. Relative quantification was done by comparison of transporter-overexpressing cells to empty vector–transfected controls. For uptake kinetic experiments, cells were incubated with increasing concentrations of substrate dissolved in HBSS+. Absolute quantification was done later by comparison to a standard curve in lysis buffer with known concentration.
(§3) Intracellular drug concentrations were detected and quantified by HPLC coupled to mass spectrometry. […] Substance-specific conditions were used to adjust the retention times of the analytes.
(§4) Transport ratios were determined as relative fold-increase of the uptake in transporter-overexpressing cells over empty vector–transfected control cells. For transport kinetic experiments, absolute substrate quantification was done by signal comparison to a standard curve with known concentrations. Net uptake was then determined by subtracting the uptake into empty vector–transfected cells from transporter-overexpressing cells. […] Vmax defines the maximum transport velocity, Km refers to the substrate concentration required to reach half vmax. The intrinsic clearance Clint is the ratio of vmax over Km.

OCT1 WT = target: T2, OCT1 WT (Homo sapiens, UniProt O15245); experiment: Uptake screening (transport ratio over empty vector), HEK293 cells overexpressing OCT1 WT; assay type: cell-based; design: expressed in transfected cells;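 further: intracellular substrate levels quantified by HPLC–tandem mass spectrometry after uptake in HBSS+ buffer at 37 °C, stable Flp-In HEK293 lines, fold change versus empty vector–transfected cells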
T2 sequence (O15245 1-554): T1 sequence (O15245 1-554 F244A) with A244F
Protocol: as §1, §2, §3, §4

[1] = Phe244Ala uptake relative to WT
[2] = uptake ratio over empty vector, HEK293 cells overexpressing OCT1 Phe244Ala
[3] = uptake ratio over empty vector, HEK293 cells overexpressing OCT1 WT
[4] = uptake ratio of OCT1 Phe244Ala-overexpressing HEK293 cells over empty vector
[5] = uptake ratio of OCT1 WT-overexpressing HEK293 cells over empty vector
[6] = Phe244Ala uptake relative to OCT1 WT

SMILES | relative_Phe244Ala_uptake_in% (OCT1 Phe244Ala variant; [1]) [%] | Mean_transport_ratio_Phe244Ala (OCT1 Phe244Ala variant; [2]) | Mean_transport_ratio_WT (OCT1 WT; [3]) | Mean_transport_ratio_Phe244Ala (OCT1 Phe244Ala variant; [4]) | Mean_transport_ratio_WT (OCT1 WT; [5]) | relative_Phe244Ala_uptake_in% (OCT1 Phe244Ala variant; [6]) | further results
CC1(C)N=C(N)N=C(N)N1c1ccc(Cl)cc1 [Cycloguanil] | 95.814 | 16.588 | 17.269 | – | – | – | –
N=C(N)N1CCc2ccccc2C1 [Debrisoquin] | 108.342 | 20.768 | 19.246 | – | – | – | –
COc1cc2c(cc1OC)-c1c(C)c3ccc(OC)c(OC)c3c[n+]1CC2 [Dehydrocorydaline] | 100.287 | 9.409 | 9.385 | – | – | – | –
CC[N+](CC)(CC(=O)Nc1c(C)cccc1C)Cc1ccccc1 [Denatonium] | 121.267 | 17.085 | 14.264 | – | – | – | –
C[N+]1(C)CCN(c2ccccc2)CC1 [Dimethylphenylpiperazinium] | 70.889 | 24.939 | 34.77 | – | – | – | –
NC(=Nc1ccccc1)Nc1ccccc1 [Diphenylguanidine] | – | – | – | – | – | – | Mean_transport_ratio_Phe244Ala (OCT1 Phe244Ala variant): 1.952; relative_Phe244Ala_uptake_in% (OCT1 Phe244Ala variant): 91.817%; Mean_transport_ratio_WT (OCT1 WT): 2.037
CC(C)N(CCC(C(N)=O)(c1ccccc1)c1ccccn1)C(C)C (centres unmarked) [Disopyramide] | 27.882 | 1.093 | 1.334 | – | – | – | –
CC[N+](C)(C)c1cccc(O)c1 [Edrophonium] | 101.017 | 26.201 | 25.947 | – | – | – | –
CCC1(C2=NCCN2)Cc2ccccc2O1 (centres unmarked) [Efaroxan] | 45.757 | 1.371 | 1.81 | – | – | – | –
Nc1nc(=O)n([C@@H]2CS[C@H](CO)O2)cc1F [Emtricitabine] | 51.794 | 2.01 | 2.95 | – | – | – | –
COc1cc2c(cc1OC)-c1cc3ccc4c(c3c[n+]1CC2)OCO4 [Epiberberine] | 84.587 | 18.92 | 22.185 | – | – | – | –
CCNCC(O)c1cccc(O)c1 (centres unmarked) [Etilefrine] | 39.917 | 3.319 | 6.81 | – | – | – | –
O=S(=O)(c1cccc2cnccc12)N1CCCNCC1 [Fasudil] | – | – | – | 1.171 | 1 | – | –
C[N+]1(CCC(C(N)=O)(c2ccccc2)c2ccccc2)CCCCC1 [Fenpiverinium] | – | – | – | 50.359 | 38.408 | 131.946% | –
CCOC(=O)c1ccc(OC(=O)CCCCCNC(=N)N)cc1 [Gabexate] | – | – | – | 2.051 | 1.935 | 112.397% | –
N=C(N)NC(=O)Cc1c(Cl)cccc1Cl [Guanfacine] | – | – | – | 2.966 | 3.273 | 86.485% | –
COc1ccc2c3c([nH]c2c1)C(C)=NCC3 [Harmaline] | – | – | – | 1.245 | 1.46 | 53.184% | –
CC(N)CCCC(C)(C)O (centres unmarked) [Heptaminol] | – | – | – | 2.658 | 8.957 | 20.840% | –

SMILES | relative_Phe244Ala_uptake_in% (OCT1 Phe244Ala variant; [1]) [%] | Mean_transport_ratio_Phe244Ala (OCT1 Phe244Ala variant; [2]) | Mean_transport_ratio_WT (OCT1 WT; [3]) | Mean_transport_ratio_Phe244Ala (OCT1 Phe244Ala variant; [4]) | Mean_transport_ratio_WT (OCT1 WT; [5]) | relative_Phe244Ala_uptake_in% (OCT1 Phe244Ala variant; [6]) | further results
Oc1ccc(CC2NCCc3cc(O)c(O)cc32)cc1 (centres unmarked) [Higenamine] | – | – | – | 13.029 | 27.934 | 44.661% | –
NCc1ccc(O)cc1 [Hydroxybenzylamin] | – | – | – | 1.294 | 2.288 | 22.795% | –
C[C@H]1N=C(N(C)C)N=C(N)N1 [Imeglimin] | – | – | – | 9.177 | 32.655 | 25.831% | –
CCC(NC(C)C)C(O)c1ccc(O)c(O)c1 (centres unmarked) [Isoetharine] | – | – | – | 16.355 | 15.766 | 103.988% | –
CC(C)NCC(O)c1ccc(O)c(O)c1 (centres unmarked) [Isoproterenol] | – | – | – | 2.519 | 6.241 | 28.983% | –
C[n+]1ccc(-c2ccccc2)cc1 [MPP^+, 1-Methyl-4-phenylpyridinium] | – | – | – | 29.377 | 45.919 | 63.172% | –
CNC1(C)C2CCC(C2)C1(C)C (centres unmarked) [Mecamylamine] | – | – | – | 0.581 | 1.579 | -72.241% | –
C[N+]1(C)CCCC(OC(=O)C(O)(c2ccccc2)c2ccccc2)C1 (centres unmarked) [Mepenzolate] | – | – | – | 36.4 and 41.936 | 28.031 and 34.795 | 130.959% and 121.132% | –
CCC1(c2cccc(O)c2)CCCCN(C)C1 (centres unmarked) [Meptazinol] | – | – | – | – | – | – | Mean_transport_ratio_Phe244Ala (OCT1 Phe244Ala variant): 1.571; relative_Phe244Ala_uptake_in% (OCT1 Phe244Ala variant): 119.786%; Mean_transport_ratio_WT (OCT1 WT): 1.477
NC(N)=NCc1cccc(I)c1 [Metaiodobenzylguanidine] | – | – | – | 11.193 | 11.544 | 96.674% | –
CNCC(O)c1ccc(O)c(OC)c1 (centres unmarked) [Metanephrine] | – | – | – | 3.351 | 7.123 | 38.392% | –
C[N@+]1(CC2CC2)CC[C@]23c4c5ccc(O)c4O[C@H]2C(=O)CC[C@@]3(O)[C@H]1C5 [Methylnaltrexone] | – | – | – | 66.016 | 47.714 | 139.178% | –
Cc1ncccc1C(N)=O [Methylnicotinamide] | – | – | – | 0.82 | 3.894 | -6.232% | –
CNCc1ccc(CSCCNC(=C[N+](=O)[O-])NC)o1 [N-Desmethyl ranitidine] | 88.566 | 31.7 | 35.663 | – | – | – | –
CC[N+](CC)(CC)CC(=O)Nc1c(C)cccc1C [N-Ethyllidocaine] | 129.074 | 53.323 | 41.537 | – | – | – | –
CNCCc1ccc(O)cc1 [N-Methyl-p-tyramine] | – | – | – | 1.688 | 6.673 | 12.133% | –
CNCCc1c[nH]c2ccc(O)cc12 [N-Methylserotonin] | – | – | – | 8.275 | 31.114 | 24.160% | –
CC(C)(C)NCC(O)COc1cccc2c1CC(O)C(O)C2 (centres unmarked) [Nadolol] | – | – | – | 13.705 | 9.921 | 142.415% | –
